Measured values taken from paper PMC12564449, “Multifaceted Biological Activity of Selected Flavone C-Monoglucosides” (International Journal of Molecular Sciences, 2025).
Counter-ions that a name gives are not always drawn. Like-named read-outs stand apart in the source and are kept apart here. Marks after values point to notes of the source that are not given here.

Experiments:
[1] = system: advanced glycation end-products (AGEs) formation in BSA/glucose model system; assay: Inhibition of AGEs formation, BSA/glucose model system; format: biochemical, bovine; details: for IC50: read-out: IC50 against AGEs formation, BSA-Glucose System
Description: (§1) The inhibitory activity against AGEs formation was performed in the bovine serum albumin (BSA)/glucose and BSA/methylglyoxal (MGO) model systems as described recently by Zielińska et al.. Standards of OR, hOR, VT, iVT, and Q were initially dissolved in a small volume of DMSO and then in phosphate buffer (0.1 M, pH 7.4) to obtain 1 mM (DMSO/phosphate buffer; 1:5; v/v). The positive control aminoguanidine (1 mM AG) was used. The percentage (%) of inhibition was obtained from three repetitions (n = 3). The IC50, indicating the concentration of the compound at which formation of AGEs is inhibited by 50%, was determined through linear regression analysis.

[2] = system: advanced glycation end-products (AGEs) formation in BSA/methylglyoxal (MGO) model system; assay: Inhibition of AGEs formation, BSA/MGO model system; format: biochemical, bovine; details: for IC50: read-out: IC50 against AGEs formation, BSA-MGO System; for anti-AGEs activity higher in relation to AG: relative to AG
Description: as §1

[3] = molecular target: T1, acetylcholinesterase (AChE) (Homo sapiens, UniProt P22303); assay: Acetylcholinesterase inhibitory activity; format: biochemical; details: for AChE inhibitory activity, times lower than that of galanthamine: relative to galanthamine
T1 construct: purchased Sigma Chemical Co. (Poznań, Poland)
T1 sequence (P22303 32-614, species assumed): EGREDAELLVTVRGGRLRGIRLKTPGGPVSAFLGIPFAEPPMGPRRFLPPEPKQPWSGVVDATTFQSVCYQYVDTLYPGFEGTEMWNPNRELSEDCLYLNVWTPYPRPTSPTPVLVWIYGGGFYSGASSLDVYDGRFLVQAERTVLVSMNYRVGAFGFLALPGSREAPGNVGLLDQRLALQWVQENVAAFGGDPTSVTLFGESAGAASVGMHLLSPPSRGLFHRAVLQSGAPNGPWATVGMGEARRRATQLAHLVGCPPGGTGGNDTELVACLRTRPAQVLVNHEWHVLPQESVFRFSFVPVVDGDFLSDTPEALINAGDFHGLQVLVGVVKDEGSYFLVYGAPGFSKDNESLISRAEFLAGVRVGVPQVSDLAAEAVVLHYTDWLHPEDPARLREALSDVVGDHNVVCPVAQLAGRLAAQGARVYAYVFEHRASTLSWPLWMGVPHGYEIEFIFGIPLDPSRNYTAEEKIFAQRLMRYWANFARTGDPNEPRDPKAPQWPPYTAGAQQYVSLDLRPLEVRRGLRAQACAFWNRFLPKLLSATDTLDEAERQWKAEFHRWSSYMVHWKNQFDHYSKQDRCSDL
Description: The AChE inhibitory activity was evaluated following the methodology adapted from Eldeen et al., and details of the procedure were provided recently by Zielińska et al.. […] All measurements were conducted using a microplate reader (Tecan Infinite M1000 PRO, TK Biotech, Warsaw, Poland). […] At least 3 replicates for each standard solution were carried out.

[4] = molecular target: T2, angiotensin-converting enzymes (ACE) from porcine kidneys (Sus scrofa, UniProt F1RRW5); assay: Angiotensin-I-converting enzyme inhibitory activity (fluorometric); format: biochemical
T2 construct: angiotensin-converting enzymes (ACE) from porcine kidneys (EC 3.4.15.1); purchased Sigma (Sigma Chemical Company, Saint Louis, MO, USA); host or cells: porcine kidney
T2 sequence (F1RRW5 34-1309): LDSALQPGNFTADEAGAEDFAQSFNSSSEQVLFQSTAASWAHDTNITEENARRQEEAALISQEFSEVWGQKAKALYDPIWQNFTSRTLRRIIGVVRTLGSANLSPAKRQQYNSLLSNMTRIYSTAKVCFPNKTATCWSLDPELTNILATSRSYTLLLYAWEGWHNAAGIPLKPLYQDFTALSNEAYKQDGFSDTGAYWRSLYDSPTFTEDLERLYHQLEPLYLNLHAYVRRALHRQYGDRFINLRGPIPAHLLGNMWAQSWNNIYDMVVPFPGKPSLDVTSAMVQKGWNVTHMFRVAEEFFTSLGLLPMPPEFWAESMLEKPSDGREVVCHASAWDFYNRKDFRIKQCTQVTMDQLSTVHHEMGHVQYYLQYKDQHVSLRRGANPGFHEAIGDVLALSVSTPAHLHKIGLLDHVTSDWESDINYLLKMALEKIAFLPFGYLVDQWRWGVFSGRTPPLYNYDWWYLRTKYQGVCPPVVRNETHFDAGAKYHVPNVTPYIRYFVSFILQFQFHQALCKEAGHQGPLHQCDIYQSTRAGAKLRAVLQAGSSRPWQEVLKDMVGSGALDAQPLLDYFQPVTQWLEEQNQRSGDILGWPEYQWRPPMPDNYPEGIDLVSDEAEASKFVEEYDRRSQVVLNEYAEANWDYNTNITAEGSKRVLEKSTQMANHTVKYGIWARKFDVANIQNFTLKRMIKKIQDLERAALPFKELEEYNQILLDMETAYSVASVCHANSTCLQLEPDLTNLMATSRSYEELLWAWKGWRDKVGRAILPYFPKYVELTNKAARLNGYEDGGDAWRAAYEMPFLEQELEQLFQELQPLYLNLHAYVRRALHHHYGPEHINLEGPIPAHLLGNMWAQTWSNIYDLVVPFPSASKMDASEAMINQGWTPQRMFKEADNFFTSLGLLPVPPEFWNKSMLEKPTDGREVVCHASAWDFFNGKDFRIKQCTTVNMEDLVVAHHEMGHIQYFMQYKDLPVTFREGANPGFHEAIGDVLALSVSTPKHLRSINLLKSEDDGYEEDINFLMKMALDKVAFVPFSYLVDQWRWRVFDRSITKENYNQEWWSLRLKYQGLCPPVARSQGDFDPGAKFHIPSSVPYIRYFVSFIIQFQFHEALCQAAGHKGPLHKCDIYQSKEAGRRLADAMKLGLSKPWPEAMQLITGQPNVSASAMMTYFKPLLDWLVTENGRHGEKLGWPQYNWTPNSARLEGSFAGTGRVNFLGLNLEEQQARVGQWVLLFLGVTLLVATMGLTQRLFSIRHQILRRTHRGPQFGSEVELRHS
Description: Angiotensin converting enzyme (ACE) inhibitory activity was performed according to the method of Sentandreu and Toldra. The details of the procedure were described recently by Zielińska et al.. Standards of OR (luteolin-8-C-glucoside), hOR (luteolin-6-C-glucoside), VT (apigenin-8-C-glucoside), iVT (apigenin-6-C-glucoside), and Q (quercetin) were dissolved in 80% methanol. Each standard was diluted to various concentrations using deionized water. The multiscan microplate fluorometer (Tecan Infinite M1000 PRO, TK Biotech, Warsaw, Poland) was used, and the IC50 value indicating the sample concentration at which 50% inhibition of ACE activity was determined by using linear regression analysis of logarithmic plots. At least 3 replicates for each standard solution were conducted.

[5] = Differential pulse voltammetry: anodic peak potentials and antioxidant activity; format: physicochemical; details: DPV; for Anodic Peak Potential Epa (mV) Epa1: glassy carbon electrode; for Antioxidant Activity (mM Trolox): area under anodic peaks, Trolox regression; for antioxidant activity lower in relation to the antioxidant activity of Q: relative to quercetin
Description: Electrochemical measurements were performed at room temperature (25 ± 2 °C) in a small-volume electrochemical cell using a potentiostat type SP-240 (BioLogic Science Instruments, Seyssinet-Pariset, France) controlled by EC-Lab V11.36 software. Differential pulse voltammograms were obtained with a pulse amplitude of 100 mV, a potential step of 5 mV, and a modulation time of 0.2 s. Four scans were registered for each sample, and the reported data correspond to the average of at least three replicates. The working electrode was a glassy carbon electrode, GCE (3 mm diameter, BASi M-2012, and the auxiliary and reference electrodes were platinum wire (BASi MW-1033) and Ag/AgCl (3 M KCl, BASi-MW-2052). All potentials are quoted against the used reference electrode. Before each scan, the surface of the glassy carbon electrode was polished on a polishing cloth with 0.05 μm alumina paste and ultrasonically rinsed in deionized water. After polishing, the electrode was washed with ultrapure water and dried with absorbent paper. DPV measurements were carried out in a standard solution of flavone C-monoglucosides and quercetin at a final concentration of 250 μM. Before measurements, the standard solutions were diluted in 0.2 M acetate-acetic buffer (in 80% methanol) at pH 5.0 (v/v: 1:1). Buffer solution also served as a supporting electrolyte. For the test purpose, from registered DPV voltammograms, the anodic oxidation potentials (Epa) in mV and the integrated area under anodic peaks in μA were determined.

[6] = vs. NHE; cited from earlier work
[7] = ACE from porcine kidneys, linear regression, read-out: IC50 for ACE inhibition
[8] = 0.25 mM standard solutions, acetate-acetic buffer pH 5.0 in 80% methanol, vs. Ag/AgCl

| SMILES | IC50 [1] | IC50 [2] | IC50 [3] | IC50 [4, 7] | anti-AGEs activity higher in relation to AG [2] | Anodic Peak Potential Epa (mV) Epa1 [5, 8] | Anodic Peak Potential Epa (mV) Epa2 [5, 8] | Antioxidant Activity (mM Trolox) [5] | other results |
| --- | --- | --- | --- | --- | --- | --- | --- | --- | --- |
| N=C(N)NN [Aminoquanidine (AG), aminoguanidine hydrochloride, reference compound] | 432 ± 36 µM | 531 ± 28 µM |  |  |  |  |  |  |  |
| O=c1cc(-c2ccc(O)c(O)c2)oc2cc(O)c([C@@H]3O[C@H](CO)[C@@H](O)[C@H](O)[C@H]3O)c(O)c12 [Homoorientin (hOR), 3′,4′,5,7-tetrahydroxyflavone-6-glucoside] | 14 ± 8 µM | 391 ± 22 µM | 0.581 ± 0.096 µM | 114 ± 1.23 µM | 26% | 336 ± 5 ^b mV | 960 ± 9 ^b mV | 3.24 ± 0.15 ^b mM Trolox | AChE inhibitory activity, times lower than that of galanthamine [3]: 14–20 times; anti-AGEs activity times higher in relation to Q ([1]; relative to Q): ~17 times; anti-AGEs activity times higher in relation to VT ([1]; relative to VT): about 18 times; anti-AGEs activity times higher in relation to iVT ([1]; relative to iVT): ~15 times; Anodic Peak Potential Epa (mV) Epa1 ([5]; 0.25 mM standard solutions, acetate-acetic buffer pH 5.0 in 80% methanol, vs. Ag/AgCl, listed as hOR): 336 mV; antioxidant activity lower in relation to the antioxidant activity of Q [5]: 15% |
| O=c1cc(-c2ccc(O)cc2)oc2cc(O)c([C@@H]3O[C@H](CO)[C@@H](O)[C@H](O)[C@H]3O)c(O)c12 [Isovitexin (iVT), 4′,5,7-trihydroxyflavone-6-glucoside] | 214 ± 11 µM | 341 ± 20 µM | 1.08 ± 0.011 µM | 161 ± 3.27 µM |  | 926 ± 8 ^a mV |  | 1.06 ± 0.07 ^c mM Trolox | Anodic Peak Potential Epa (mV) Epa1 ([5]; 0.25 mM standard solutions, acetate-acetic buffer pH 5.0 in 80% methanol, vs. Ag/AgCl, listed as iVT): 926 mV |
| O=c1cc(-c2ccc(O)cc2)oc2c([C@@H]3O[C@H](CO)[C@@H](O)[C@H](O)[C@H]3O)c(O)cc(O)c12 [Vitexin (VT), 4′,5,7-trihydroxyflavone-8-glucoside] | 255 ± 16 µM | 437 ± 17 µM | 1.28 ± 0.089 µM | 135 ± 2.45 µM | 18% | 925 ± 8 ^a mV |  | 0.93 ± 0.07 ^c mM Trolox | ACE inhibitory activity higher in comparison to iVT ([4]; relative to iVT): 19.6%; Anodic Peak Potential Epa (mV) Epa1 ([5]; 0.25 mM standard solutions, acetate-acetic buffer pH 5.0 in 80% methanol, vs. Ag/AgCl, listed as VT): 925 mV |
| N[C@@H](CCC(=O)N[C@@H](CS)C(=O)NCC(=O)O)C(=O)O [Glutathione (GSH), Glutathione] |  |  |  |  |  |  |  |  | standard redox potential [6]: around −0.23 V |
| O=c1c(O)c(-c2ccc(O)c(O)c2)oc2cc(O)cc(O)c12 [Quercetin (Q), 3,3′,4′,5,7-pentahydroxyflavone, reference compound] | 243 ± 12 µM | 466 ± 17 µM | 1.37 ± 0.077 µM |  | 12% | 255 ± 7 ^c mV | 510 ± 8 ^c mV | 3.81 ± 0.19 ^a mM Trolox | Anodic Peak Potential Epa (mV) Epa1 ([5]; 0.25 mM standard solutions, acetate-acetic buffer pH 5.0 in 80% methanol, vs. Ag/AgCl, listed as Q): 255 mV; Anodic Peak Potential Epa (mV) Epa3 [5, 8]: 1060 ± 10 mV |
| O=c1cc(-c2ccc(O)c(O)c2)oc2c([C@@H]3O[C@H](CO)[C@@H](O)[C@H](O)[C@H]3O)c(O)cc(O)c12 [Orientin (OR), 3′,4′,5,7-tetrahydroxyflavone-8-glucoside] | 73 ± 5 µM | 326 ± 19 µM |  |  | 39% | 345 ± 6 ^b mV | 1020 ± 9 ^a mV | 3.00 ± 0.14 ^b mM Trolox | IC50 ([3]; linear regression, read-out: IC50 for AChE inhibition): 0.868 ± 0.088 µM; AChE inhibitory activity, times lower than that of galanthamine [3]: 14–20 times; IC50 [4]: 122 ± 2.66 µM; ACE inhibitory activity lower as compared to hOR ([4]; relative to hOR): 6.9%; Anodic Peak Potential Epa (mV) Epa1 ([5]; 0.25 mM standard solutions, acetate-acetic buffer pH 5.0 in 80% methanol, vs. Ag/AgCl, listed as OR): 345 mV; antioxidant activity lower in relation to the antioxidant activity of Q [5]: 21% |
